Measured values reported in publication PMC8067754, “Active Transport of Hepatotoxic Pyrrolizidine Alkaloids in HepaRG Cells” (International Journal of Molecular Sciences, 2021).
“And” between values parts separate entries of the source, which are not always exact repeats. Equal values may be shown once.

Test system: HepaRG cells
Assay: Time-dependent PA depletion and PANO formation in cell culture medium of HepaRG cells at 37 °C and 4 °C (LC-MS/MS)
Conditions: for PA content in cell culture medium, Mean [%]: 700 nM PA; for PA content in cell culture medium, Mean [%] / PANO content in cell culture medium, Mean [%]: percent of initial PA concentration; for reduction of PA content in the supernatant / PANO formation in cell culture medium: 37 °C; for reduction of PA content in the supernatant: after 24 h, 700 nM; for PANO formation in cell culture medium / PANO content in cell culture medium, Mean [%]: 700 nM parent PA
Description: In order to measure time-dependent depletion of PA and PANO content in cell culture medium, cells were seeded at a density of 0.2 × 10^6 cells per well in a 6-well plate and cultivated as described in Section 4.2. After four weeks of cultivation, cells were adapted to serum-free medium and medium substituted with insulin, transferrin, selenium (ITS) serum extender (Capricorn Scientific, Ebsdorfergrund, Germany) 48 h prior to PA incubation for optimal LC-MS/MS measurements. […] Samples were taken after 2 h, 4 h, 8 h and 24 h.
Briefly, chromatographic separation of PA/PANO analytes was achieved on a 50 × 2.1 mm Kinetex ™ 2.6 μm CoreShell EVO C18 100 Å column protected by a SecurityGuard ™ ULTRA EVO C 18 2.1 mm guard column (both Phenomenex, Aschaffenburg, Germany) at a flow rate of 0.4 mL/min on a Shimadzu high performance liquid chromatography (HPLC) apparatus (LC-20AB, SIL-20AC HT, CTO-20AC, CBM-20A, Duisburg, Germany) coupled to an API4000 triple quadrupole MS (Sciex, Darmstadt, Germany). The following MS parameters were used for measurements in positive electrospray ionisation (ESI+) mode: ionisation voltage 2500 V, nebuliser gas 50 psi, heating gas 50 psi, curtain gas 30 psi, temperature 600 °C, collision gas level 7. The substance specific parameters are summarized in Kaltner et al. 2019 [79].

For CC(C)[C@](O)(C(=O)OCC1=CCN2CC[C@@H](O)[C@@H]12)[C@@H](C)O [Lycopsamine, lycopsamine], the “PA content in cell culture medium, Mean [%]” value (“PA content … [%]” for short) (HepaRG, 4 °C (cold), 0h) was 115.66%, the “PA content … [%]” value (HepaRG, 4 °C (cold), 2h) was 114.666% and the “PA content … [%]” value (HepaRG, 37 °C (warm), 2h) was 110.255%. For the same compound, the “PA content … [%]” value (HepaRG, 37 °C (warm), 4h) was 110.221%, the “reduction of PA content in the supernatant” value (HepaRG) was “only little reduction” and the “PA in medium, Mean [%]” value (cold, 0h) was 100%. For the same compound, the “PA in medium, single replicates (repl.)” value (cold, 0h) was 100%, the “PA in medium, Mean [%]” value (cold, 2h) was 98.8899% and the “PA in medium, single replicates (repl.)” value (cold, 2h) was 94.3912% and 95.7309%. For the same compound, the “PA in medium, Mean [%]” value (cold, 4h) was 96.1322%, the “PA in medium, single replicates (repl.)” value (cold, 4h) was 91.7949% and 100.05% and the “PA in medium, Mean [%]” value (cold, 8h) was 96.74%. The “PA in medium, single replicates (repl.)” value (cold, 8h) was 94.6446% and 94.7892% and 95.0549%, the “PA in medium, single replicates (repl.)” value (cold, 24h) was 89.7134% and 94.6663% and 94.1752% and 95.3538% and the “PA in medium, Mean [%]” value (warm, 0h) was 100%. For the same compound, the “PA in medium, single replicates (repl.)” value (warm, 0h) was 100%, the “PA in medium, Mean [%]” value (warm, 2h) was 96.1576% and the “PA in medium, single replicates (repl.)” value (warm, 2h) was 89.3775%. The “PA in medium, Mean [%]” value (warm, 4h) was 95.7481%, the “PA in medium, single replicates (repl.)” value (warm, 4h) was 96.6594% and the “PA in medium, Mean [%]” value (warm, 8h) was 94.2429%. The “PA in medium, single replicates (repl.)” value (warm, 8h) was 86.6726% and 92.5981% and the “PA in medium, single replicates (repl.)” value (warm, 24h) was 92.6515%.
In the case of C/C=C(/C)C(=O)O[C@@H]1CC[N+]2([O-])CC=C(COC(=O)[C@@](O)([C@H](C)O)C(C)(C)O)[C@H]12 (stereo partly drawn) [echimidine N-oxide], the “PANO formation in cell culture medium” value (HepaRG, up to 24 h) is reported as “increased with time”.
For C/C=C1/C[C@@H](C)[C@@](C)(O)C(=O)OC/C2=C/CN(C)CC[C@@H](OC1=O)C2=O [Senkirkine, senkirkine], the “PA content … [%]” value (HepaRG, 4 °C (cold), 8h) was 116.261%, the “PA content … [%]” value (HepaRG, 4 °C (cold), 24h) was 100.349% and the “PA content … [%]” value (HepaRG, 37 °C (warm), 24h) was 51.3803%. The “PANO formation in cell culture medium” value (HepaRG, up to 24 h) was “did not form PANOs”, the “uptake and toxicity (grading)” value (HepaRG, Figure 2a, toxicity grading with ref 41) was “medium” and the “PA in medium, Mean [%]” value (cold, 0h) was 100%. The “PA in medium, single replicates (repl.)” value (cold, 0h) was 100%, the “PA in medium, single replicates (repl.)” value (cold, 2h) was 96.9078% and the “PA in medium, single replicates (repl.)” value (cold, 4h) was 94.744% and 91.9958%. The “PA in medium, Mean [%]” value (cold, 8h) was 99.7692%, the “PA in medium, single replicates (repl.)” value (cold, 8h) was 96.8217% and the “PA in medium, Mean [%]” value (cold, 24h) was 86.0777%. For the same compound, the “PA in medium, single replicates (repl.)” value (cold, 24h) was 79.1115%, the “PA in medium, Mean [%]” value (warm, 0h) was 100% and the “PA in medium, single replicates (repl.)” value (warm, 0h) was 100%. For the same compound, the “PA in medium, Mean [%]” value (warm, 2h) was 96.897%, the “PA in medium, single replicates (repl.)” value (warm, 2h) was 86.8159% and 96.0701% and the “PA in medium, Mean [%]” value (warm, 4h) was 92.4068%. The “PA in medium, single replicates (repl.)” value (warm, 4h) was 82.3204% and 92.3164%, the “PA in medium, Mean [%]” value (warm, 8h) was 78.7411% and the “PA in medium, single replicates (repl.)” value (warm, 8h) was 72.1889% and 78.0729% and 85.9614%. For the same compound, the “PA in medium, Mean [%]” value (warm, 24h) was 45.8528% and the “PA in medium, single replicates (repl.)” value (warm, 24h) was 40.9466% and 44.2184% and 52.3933%.
For C/C=C1/C[C@@H](C)[C@@](C)(O)C(=O)OCC2=CC[N+]3([O-])CC[C@@H](OC1=O)[C@@H]23 (stereo partly drawn) [senecionine N-oxide], the “PANO formed in cold-incubated cells, of the applied mother compound” value (HepaRG, 4 °C, 700 nM senecionine, up to 24 h, Figure 2d) was < 1% and the “PANO formation in cell culture medium” value (HepaRG, up to 24 h) was “increased with time”.
C/C=C1/C[C@@H](C)[C@](O)(CO)C(=O)OCC2=CC[N@@+]3([O-])CC[C@@H](OC1=O)[C@@H]23 [retrorsine N-oxide] was tested, and the “PANO formation in cell culture medium” value (HepaRG, up to 24 h) was “increased with time”.
In the case of intermedine, the “PA content … [%]” value (HepaRG, 4 °C (cold), 0h) is reported as 107.988%, the “PA content … [%]” value (HepaRG, 4 °C (cold), 2h) is reported as 103.883% and the “PA content … [%]” value (HepaRG, 4 °C (cold), 4h) is reported as 102.163%. The “PA content … [%]” value (HepaRG, 4 °C (cold), 8h) was 103.746%, the “PA content … [%]” value (HepaRG, 4 °C (cold), 24h) was 100.748% and the “PA content … [%]” value (HepaRG, 37 °C (warm), 0h) was 108.544%. The “PA content … [%]” value (HepaRG, 37 °C (warm), 2h) was 103.044%, the “PA content … [%]” value (HepaRG, 37 °C (warm), 4h) was 97.3218% and the “PA content … [%]” value (HepaRG, 37 °C (warm), 8h) was 97.4673%. For the same compound, the “PA content … [%]” value (HepaRG, 37 °C (warm), 24h) was 100.568%, the “PANO content in cell culture medium, Mean [%]” value (shortened to “PANO content … [%]”) (HepaRG, 4 °C (cold), 0h) was 0% and the “PANO content … [%]” value (HepaRG, 4 °C (cold), 2h) was 0.06406%. For the same compound, the “PANO content … [%]” value (HepaRG, 4 °C (cold), 4h) was 0.04788%, the “PANO content … [%]” value (HepaRG, 4 °C (cold), 8h) was 0.07456% and the “PANO content … [%]” value (HepaRG, 4 °C (cold), 24h) was 0.022%. For the same compound, the “PANO content … [%]” value (HepaRG, 37 °C (warm), 0h) was 0%, the “PANO content … [%]” value (HepaRG, 37 °C (warm), 2h) was 0.04194% and the “PANO content … [%]” value (HepaRG, 37 °C (warm), 4h) was 0.01862%. The “PANO content … [%]” value (HepaRG, 37 °C (warm), 8h) was 0.0065%, the “PANO content … [%]” value (HepaRG, 37 °C (warm), 24h) was 0.0275% and the “reduction of PA content in the supernatant” value (HepaRG) was “only little reduction”. The “PA in medium, Mean [%]” value (cold, 0h) was 100%, the “PA in medium, single replicates (repl.)” value (cold, 0h) was 100% and the “PANO in medium, Mean [%]” value (cold, 0h) was 0%. For the same compound, the “PANO in medium, single replicates (repl.)” value (from here on “PANO in medium … (repl.)”) (cold, 0h) was 0%, the “PA in medium, Mean [%]” value (cold, 2h) was 96.2366% and the “PA in medium, single replicates (repl.)” value (cold, 2h) was 96.0144% and 91.6565% and 102.06% and 95.215%. The “PANO in medium, Mean [%]” value (cold, 2h) was 0.05112%, the “PANO in medium … (repl.)” value (cold, 2h) was 0.03% and 0.05295% and 0.03688% and 0.08463% and the “PA in medium, Mean [%]” value (cold, 4h) was 94.7318%. The “PA in medium, single replicates (repl.)” value (cold, 4h) was 93.7752% and 93.3154% and 101.161% and 90.6753%, the “PANO in medium, Mean [%]” value (cold, 4h) was 0.03748% and the “PANO in medium … (repl.)” value (cold, 4h) was 0.02966% and 0.02637% and 0% and 0.09388%. The “PA in medium, Mean [%]” value (cold, 8h) was 96.1713%, the “PA in medium, single replicates (repl.)” value (cold, 8h) was 95.8013% and 89.4137% and 105.78% and 93.6906% and the “PANO in medium, Mean [%]” value (cold, 8h) was 0.05989%. For the same compound, the “PANO in medium … (repl.)” value (cold, 8h) was 0.03944% and 0.1014% and 0% and 0.09868%, the “PA in medium, Mean [%]” value (cold, 24h) was 93.3405% and the “PA in medium, single replicates (repl.)” value (cold, 24h) was 92.0698% and 90.9944% and 99.8071% and 90.4909%. The “PANO in medium, Mean [%]” value (cold, 24h) was 0.01524%, the “PANO in medium … (repl.)” value (cold, 24h) was 0.001348% and 0% (2×) and 0.05962% and the “PA in medium, Mean [%]” value (warm, 0h) was 100%. The “PA in medium, single replicates (repl.)” value (warm, 0h) was 100%, the “PANO in medium, Mean [%]” value (warm, 0h) was 0% and the “PANO in medium … (repl.)” value (warm, 0h) was 0%. The “PA in medium, Mean [%]” value (warm, 2h) was 94.9033%, the “PA in medium, single replicates (repl.)” value (warm, 2h) was 93.3617% and 94.7726% and 98.2992% and 93.1796% and the “PANO in medium, Mean [%]” value (warm, 2h) was 0.03999%. For the same compound, the “PANO in medium … (repl.)” value (warm, 2h) was 0.003057% and 0.04704% and 0.1099% and 0%, the “PA in medium, Mean [%]” value (warm, 4h) was 89.9787% and the “PA in medium, single replicates (repl.)” value (warm, 4h) was 93.5042% and 95.5972% and 80.8797% and 89.9336%. The “PANO in medium, Mean [%]” value (warm, 4h) was 0.01797%, the “PANO in medium … (repl.)” value (warm, 4h) was 0% (2×) and 0.07092% and 0.000941% and the “PA in medium, Mean [%]” value (warm, 8h) was 90.1345%. For the same compound, the “PA in medium, single replicates (repl.)” value (warm, 8h) was 94.7528% and 91.6017% and 83.3876% and 90.7959%, the “PANO in medium, Mean [%]” value (warm, 8h) was 0.006117% and the “PANO in medium … (repl.)” value (warm, 8h) was 0% (3×) and 0.02447%. For the same compound, the “PA in medium, Mean [%]” value (warm, 24h) was 92.1206%, the “PA in medium, single replicates (repl.)” value (warm, 24h) was 92.1111% and 85.5289% and 89.7263% and 101.116% and the “PANO in medium, Mean [%]” value (warm, 24h) was 0.02621%. The “PANO in medium … (repl.)” value (warm, 24h) was 0% (2×) and 0.05428% and 0.05058%.
